Data set [1] is described as follows: Toxicokinetics in the 7-day repeated intragastric administration study in SD rats. The class given is in vivo, Sprague-Dawley (SD) rat. An excerpt: (§1) • Test compound 1: GDC-0077 • Test compound 2: the compounds of Example 22 and Example 62 3.2.2 Vehicle • Name: 20% aqueousSBE-β-CD (Captisol) solution 3.2.3 Animal Information • Species & strains: Sprague-Dawley (SD) rat • Animal grade: SPF grade • Number and sex of animals: 160 rats, half male and half female. 3.2.4 Instruments • The ADVIA®2120 series Hematology System with Autoslide was used for blood cell counting; • The SYSMEX CA-500 Coagulation Analyzer was used for the detection of coagulation function indicators; • The TBA-120FR Automated Biochemical Analyzer was used for the detection of blood biochemical indicators; • The Easylyte Electrolyte Analyzer was used for the detection of electrolytes; • The liquid mass spectrometry detector model API4000; • The electron spray ionization (ESI) positive ion mode and column type Agilent ZORBAX XDB-C18 (3.5 μm, 2.1×50 mm) were used for bioanalytical detection of plasma samples. 3.3 Experimental Method • 1) In the experiment, 160 rats (80 rats/sex) were divided into 20 groups according to their sex and body weight, wherein 100 rats were used for toxicology study (groups 1 to 10, 5 rats/sex/group) and 60 rats were used for toxicokinetic study (groups 11 to 20, 3 rats/sex/group); • 2) As the vehicle control group, the animals in groups 1 and 11 were intragastrically administered 20% aqueous SBE-β-CD (Captisol) solution; • 3) The animals in groups 2 and 12, groups 3 and 13, and groups 4 and 14 were intragastrically administered 10, 30 and 60 mg/kg of GDC-0077, respectively; • 4) The animals in groups 5 and 15, groups 6 and 16, and groups 7 and 17 were intragastrically administered 10, 30 and 60 mg/kg of the compound of Example 22, respectively; • 5) The animals in groups 8 and 18, groups 9 and 19, groups 10 and 20 were intragastrically administered 10, 30 and 60 mg/kg of the compound of Example 62, respectively; • 5) The animals were administered once a day for 7 consecutive days (the animals in groups 7, 17, 10 and 20 were administered for 6 consecutive days). • 6) The administration volume was 10 mL/kg. • 7) During the experiment, items such as clinical observation, body weight, food intake, clinicopathological indicators (blood cell count, coagulation function, blood biochemistry), toxicokinetics and the like were studied. • 8) All animals were euthanized on Day 8 (the animals in groups 7, 10, 17 and 20 were euthanized after administration on Day 6). • 9) During the experiment, gross anatomical observation was performed on the animals in groups 1 to 10, animals in groups 17 and 20, and dead animals (including animals in toxicological study). Histopathological examination was performed on abnormal tissues, gastrointestinal tissues (such as colon, cecum) and immune tissues (such as thymus). […]

The test system of a further data set is SD rats. Description: Toxicity test of a 7-day repeatedly intragastric administration in SD rats. The conditions noted are these: 7 days; for tolerance compared with GDC-0077: SD rats, 10, 30 and 60 mg/kg once/day. Type of data set: in vivo.
From the text: as §1

For the next data set, the target named is T1, PI3Kα (Homo sapiens, UniProt P42336).
T1 construct: purchased Promega #V1721
Put plainly: ADP-Glo Lipid Kinase Assay, PI3Kα kinase activity. The class given is biochemical. Here is the method:
In this experiment, ADP-Glo Lipid Kinase Assay (Promega #V9102) from Promega was used. The lipid kinases PI3Kα/β/γ/δ catalyzed the ATP-to-ADP reaction in the presence of the substrate PIP2:3PS and ATP. The lipid kinase activity was characterized by measuring the ADP content in the reaction, and the half inhibition concentrations IC50 of the compounds on PI3Kα/β/γ/δ kinase activity were obtained.
Kinase reactions were carried out in white 384-well plates (Perkin Elmer #6007299). 2 μL of the compound of various concentrations diluted with ddH2O containing 1% DMSO was added to each well, and 2 μL of ddH2O containing 1% DMSO was added to positive control wells. […] After the reaction was carried out for 20 minutes at room temperature in the dark, the chemiluminescence was measured by BioTek Synergy H1 microplate reader.
The percentage inhibition data of the compound-treated well was calculated from positive control wells (DMSO control wells) and negative control wells (no kinase added) on the plate {% inhibition=100−[(test compound value−negative control value)]/(positive control value-negative control value)×100}. IC50 values were calculated using GraphPad prism and using a four-parameter nonlinear logistic formula to fit the data of different concentrations and corresponding percent inhibition.

Data set [2] can be described thus: Pharmacokinetic (PK) assay in mice, single intragastric administration. The conditions noted are these: mouse, po, Balb/c male mice, 5 mg/kg, plasma; for AUC(0-t): read-out: Area under the curve AUC0-t; for AUC(0-inf): read-out: Area under the curve AUC0-∞; for half-life: read-out: Half life t1/2 (converted); for MRT: read-out: Mean residence time MRT; for Tmax: read-out: Peak time tmax; for Cmax: read-out: Plasma concentration Cmax. The class given is in vivo. Here is the method:
The pharmacokinetic assay of the preferred compounds of the examples of the present invention in mice was carried out in Balb/c male mice (Shanghai Jiesijie Laboratory Animal Co., Ltd.).
5.1 Administration route: single intragastric administration.
5.2 Administration dose: 5 mg/10 ml/kg (body weight).
5.3 Formulation: the compound was dissolved in 0.5% CMC-Na by ultrasound to obtain a clear solution or a homogeneous suspension.
5.4 Sampling points: 0.5, 1, 2, 4, 6, 8 and 24 hours after administration.
• 1) 0.1 mL of orbital blood was collected and placed in a K2-EDTA test tube, centrifuged at 1000 to 3000×g at room temperature for 5 to 20 min to separate the plasma, which was then stored at −80° C. • 2) 160 uL of acetonitrile was added to 40 uL of plasma sample for precipitation. After mixing, the sample was centrifuged at 500 to 2000×g for 5 to 20 minutes. • 3) 100 uL of the supernatant after processing was taken and analyzed by LC/MS/MS assay to determine the concentrations of the example compound. 5.6 LC-MS/MS Assay: • Liquid chromatography condition: Shimadzu LC-20AD pump • Mass spectrometry condition: AB Sciex API 4000 mass spectrometer • Chromatographic column: phenomenex Gemiu 5 μm C18 50×4.6 mm • Mobile phase: solution A was 0.1% aqueous formic acid solution, and solution B was acetonitrile • Flow rate: 0.8 mL/min • Elution time: 0 to 4 minutes, gradient elution 5.7 Pharmacokinetics: […]

Setting [3] is: doses of 10, 30 and 60 mg/kg once/day.

As usually defined, the IC50 is the concentration that gives 50% inhibition. As usually defined, the MRT is the average time that molecules of a dose stay in the body. Usually Tmax stands for the time from dosing to the highest level.

T1 sequence (P42336 whole entry): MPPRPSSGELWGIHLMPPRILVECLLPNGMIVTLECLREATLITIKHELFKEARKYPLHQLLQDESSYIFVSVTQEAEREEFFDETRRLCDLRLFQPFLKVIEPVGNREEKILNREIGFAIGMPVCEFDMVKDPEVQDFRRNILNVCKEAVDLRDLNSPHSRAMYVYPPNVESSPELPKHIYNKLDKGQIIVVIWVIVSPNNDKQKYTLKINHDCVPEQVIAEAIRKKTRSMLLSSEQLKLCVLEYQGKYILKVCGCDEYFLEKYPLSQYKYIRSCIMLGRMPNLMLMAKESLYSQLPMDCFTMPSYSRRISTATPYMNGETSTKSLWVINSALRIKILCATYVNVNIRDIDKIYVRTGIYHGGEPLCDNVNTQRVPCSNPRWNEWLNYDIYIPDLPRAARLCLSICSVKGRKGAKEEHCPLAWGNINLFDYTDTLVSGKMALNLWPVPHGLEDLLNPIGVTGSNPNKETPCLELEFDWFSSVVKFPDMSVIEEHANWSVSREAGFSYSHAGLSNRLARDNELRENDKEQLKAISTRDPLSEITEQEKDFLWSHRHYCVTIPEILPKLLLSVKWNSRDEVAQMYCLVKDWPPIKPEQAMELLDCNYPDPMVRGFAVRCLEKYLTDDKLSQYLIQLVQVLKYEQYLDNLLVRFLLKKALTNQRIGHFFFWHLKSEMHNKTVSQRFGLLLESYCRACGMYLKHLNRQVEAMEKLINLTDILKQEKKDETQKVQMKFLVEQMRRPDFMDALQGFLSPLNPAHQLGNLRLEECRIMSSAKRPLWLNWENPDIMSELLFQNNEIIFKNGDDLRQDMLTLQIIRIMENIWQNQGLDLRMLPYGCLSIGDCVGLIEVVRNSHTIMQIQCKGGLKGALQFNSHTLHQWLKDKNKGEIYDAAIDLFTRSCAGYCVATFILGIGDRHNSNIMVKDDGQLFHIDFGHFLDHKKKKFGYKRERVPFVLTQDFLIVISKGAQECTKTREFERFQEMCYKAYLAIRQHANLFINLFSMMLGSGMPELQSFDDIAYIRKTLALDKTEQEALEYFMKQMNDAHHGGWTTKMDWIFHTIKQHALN
T1 sequence (P27986 whole entry partner): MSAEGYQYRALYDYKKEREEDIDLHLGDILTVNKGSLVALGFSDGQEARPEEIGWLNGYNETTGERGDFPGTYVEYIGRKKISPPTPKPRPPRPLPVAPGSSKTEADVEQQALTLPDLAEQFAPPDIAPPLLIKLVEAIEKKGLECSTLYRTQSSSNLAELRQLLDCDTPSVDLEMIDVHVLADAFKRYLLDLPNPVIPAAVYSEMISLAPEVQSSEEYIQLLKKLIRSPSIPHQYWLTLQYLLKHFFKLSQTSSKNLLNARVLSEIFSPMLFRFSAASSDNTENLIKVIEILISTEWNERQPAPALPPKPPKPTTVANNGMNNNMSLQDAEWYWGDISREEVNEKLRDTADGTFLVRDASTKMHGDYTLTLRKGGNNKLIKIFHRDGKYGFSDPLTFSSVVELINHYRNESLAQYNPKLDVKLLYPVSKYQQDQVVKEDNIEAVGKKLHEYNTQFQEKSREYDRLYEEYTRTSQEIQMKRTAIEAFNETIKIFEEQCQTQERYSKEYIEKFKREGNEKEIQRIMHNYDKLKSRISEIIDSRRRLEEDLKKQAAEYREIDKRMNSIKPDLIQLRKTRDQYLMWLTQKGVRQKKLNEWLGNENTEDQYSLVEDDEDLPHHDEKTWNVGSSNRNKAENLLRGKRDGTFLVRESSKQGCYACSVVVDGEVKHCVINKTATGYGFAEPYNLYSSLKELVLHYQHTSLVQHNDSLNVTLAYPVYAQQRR

For `C[C@H](Nc1ccc2c(c1)OCCn1cc(N3C(=O)SC[C@H]3C(F)F)nc1-2)C(N)=O` [Example 22, (S)-2-((2-((R)-4-(difluoromethyl)-2-oxothiazolidin-3-yl)-5,6-dihydrobenzo[f]imidazo[1,2-d][1,4]oxazepin-9-yl)amino)propionamide], in data set [1], the “systemic exposure compared with GDC-0077 at the same dose” value is “significantly higher than that of GDC-0077”. Besides, the “Cmax and AUC(0-24 h) compared with GDC-0077” value in data set [1] (dose of 30 mg/kg) and in data set [1] (setting [3]) was “significantly higher than those of GDC-0077” each time. Also, the “tolerance compared with GDC-0077” value in the data set on SD rats is reported as “better than that of GDC-0077”. For the same compound, in the data set with SD rats (SD rats, intragastric once/day), the lethal dose amounted to 60 mg/kg.

With `C[C@H](Nc1ccc2c(c1)N(C)CCn1cc(N3C(=O)OC[C@H]3C(F)F)nc1-2)C(N)=O` [Example 56, (S)-2-((2-((S)-4-(difluoromethyl)-2-oxooxazolidin-3-yl)-7-methyl-6,7-dihydro-5H-benzo[f]imidazo[1,2-d][1,4]diazoheptin-9-yl)amino)propionamide], at PI3Kα, the IC50 came out at 0.5 nM. Moreover, in data set [2], the AUC(0-t) stood at 1350 ng·h/mL, the AUC(0-inf) is 1360 ng·h/mL, the half-life was 1.6 h and the MRT was 2.2 h. Further, in data set [2], the Tmax was found to be 0.5 h and the Cmax was determined as 985 ng/mL.

Consider `C[C@H](Nc1ccc2c(c1)SCCn1cc(N3C(=O)OC[C@H]3C(F)F)nc1-2)C(N)=O` [Example 62, (S)-2-((2-((S)-4-(difluoromethyl)-2-oxooxazolidin-3-yl)-5,6-dihydrobenzo[f]imidazo[1,2-d][1,4]thiazepin-9-yl)amino)propionamide], for which the “Cmax and AUC(0-24 h) compared with GDC-0077” value in data set [1] (setting [3]) is recorded as “significantly higher than those of GDC-0077”. The IC50 at PI3Kα turned out to be 0.1 nM. For the same compound, in data set [2], the AUC(0-t) was 3440 ng·h/mL, the AUC(0-inf) amounted to 3470 ng·h/mL, the half-life is 1.5 h and the MRT worked out at 2.8 h. In data set [2], the Tmax came out at 0.5 h and the Cmax came out at 1250 ng/mL. In addition, in the data set on SD rats, the “tolerance compared with GDC-0077” value is listed as “better than that of GDC-0077”.
